From publication PMC8226850, “Thermal Inactivation Kinetics of Kudzu (Pueraria lobata) Polyphenol Oxidase and the Influence of Food Constituents” (Foods, 2021) come the findings set out here.

The test system of the assay is T1, pPPO (purified kudzu polyphenol oxidase).
T1 construct: gene PPO; single prominent SDS-PAGE band approx. 21 kDa
The assay can be described thus: UV-visible spectrophotometry at […] nm, Lineweaver-Burk. The assay is classed as biochemical, Pueraria montana var. lobata. The conditions noted are these: catechol oxidation; activity assay in McIlvaine buffer pH 5.0, 25 °C.

Consider `Oc1ccccc1O` [catechol], for which the Km came out at 23.5 mM.

Broadly, the Km is the concentration of substrate that gives half-maximal velocity.
